Data on one compound can be found in ChEMBL document CHEMBL3046296, “Development of a New Herbicide, Indanofan” (J Pestic Sci, 2004).

Each structure is given as a SMILES string.

Broadly, the logP is a log measure of how a compound divides between an organic and an aqueous phase.

In data set [1] the test system is Echinochloa crus-galli. Briefly: Pre-emergence herbicide activity against Echinochloa crus-galli (barnyard grass) up to 3-leaf stage. Type of data set: functional.
Data set [2] deals with Echinochloa oryzicola. The experiment in a line: Pre-emergence herbicide activity against Echinochloa oryzicola after 42 days. Type of data set: functional.
For data set [3], the system named is Poa annua. The experiment in a line: Pre-emergence herbicide activity against Poa annua up to two-leaf stage. Type of data set: functional.
For data set [4], the system named is Echinochloa oryzicola. Briefly: Pre-emergence herbicide activity against Echinochloa oryzicola up to three-leaf stage. Type of data set: functional.
Data set [5] in a line: Octanol-water partition co-efficient, log P of the compound in water at 25 degC. Type of data set: physicochemical.
Data set [6] relates to Zoysia matrella. The experiment in a line: Pre-emergence herbicide activity against Zoysia matrella measured 7 days after planting. Type of data set: functional.

For `CCC1(CC2(c3cccc(Cl)c3)CO2)C(=O)c2ccccc2C1=O` (stereo not drawn) [(RS)-INDANOFAN], the Activity is recorded as 0.15 KgAi/ha in data set [1]; 0.15 KgAi/ha in data set [2]; 0.5 KgAi/ha in data set [3]; 0.15 KgAi/ha in data set [4]; 1 KgAi/ha in data set [6]. This compound also gave a logP in data set [5] of 3.59.
